In patent US8455495B2, “Pyridazino-pyridinone compounds and methods of use” (Amgen Inc., priority 2008, dated 2013) one finds IC50 and ED50 data, which are given here for one compound.

One experiment has as its target recombinant human p38α (Homo sapiens, UniProt Q16539). In words: Purified and activated recombinant human p38α HTRF assay. It counts as biochemical. The settings on record: 1 nM p38α, 50 μM ATP, GST-ATF2 substrate, read-out: p38a IC50. (In TR-FRET formats the signal depends on donor and acceptor labels being close together.)
Experiment [1] relates to TNF-α production by LPS-activated THP1 cells. The experiment can be described thus: Lipopolysaccharide-activated THP1 cell TNF production assay. It counts as cell-based. The settings on record: Homo sapiens, THP-1; THP1 cells, LPS, 3 hours; read-out: IC50 in THP-1 cellular TNF production assay.
Experiment [2] has as its system LPS-induced TNF-α production. In words: Inhibition of LPS-induced TNF-α production in rats. The experiment is classed as in vivo. Particulars: Rattus norvegicus; rats, compound PO 60 minutes prior to LPS IV; plasma TNF-α 90 minutes after LPS; read-out: ED50, inhibition of LPS-induced TNF-α production. As for the experimental part:
Inhibition of LPS-Induced TNF-α Production Rats
LPS was diluted in PBS (100 μg per rat). Rats (n=6) were pretreated with vehicle or compound (0.03, 0.1, 0.3 and 1.0 mg/kg, PO) 60 minutes prior to the injection of LPS (100 μg per rat/IV, tail vein). Blood was harvested via decapitation 90 minutes following the administration of LPS. Blood was centrifuged at 12,000 rpm for 12 minutes to obtain plasma. Plasma samples were stored at −80 C. TNF-α levels were determined by ELISA for treatment groups that received LPS. Rat TNF-α levels were analyzed using rat TNF-α CytoSet kit from Biosource International. ELISA was completed according to the manufacturer's instructions. The concentration of TNF-α was interpolated from absorbance using the standard curve generated. For each individual sample, the TNF value from the dilution series that fell in the most linear portion of the standard curve was chosen and used for data analysis. The limit of quantitation of the ELISA was 1,000 pg/mL.

For experiment [3], the system named is collagen-induced arthritis. In words: Collagen-induced arthritis (CIA) model in rats. It counts as in vivo. The settings on record: Rattus norvegicus, 168 h; rats, treated for 7 days from onset of arthritis; read-out: ED50 in rat CIA model. As to the method:
Collagen-induced Arthritis (CIA) Model in Rats
Porcine type II collagen (10 mg) was dissolved in 0.1N acetic acid (5 mL) two days prior to use on a rotating plate in the refrigerator. Subsequently, collagen was emulsified 1:1 with Freund's incomplete adjuvant using an emulsification needle and glass syringes yielding a final concentration of 1 mg/mL.
Disease was induced in each animal by intradermal injection of emulsified collagen in IFA at 10 different sites (100 μL per site) over the back. The clinical onset of arthritis varied between days 10 to 12 as indicated by hind paw swelling and ambulatory difficulties. At onset (defined as Day 0), rats were randomized to treatment groups and therapy was initiated with drug or vehicle control as noted in table above. Rats were treated for 7 days and were sacrificed on Day 8.

Experiment [4] concerns production of IL-1β, IL-6, and TNF-α by PBMC activated with LPS. In words: Lipopolysaccharide-activated PBMC cytokine production assay. The experiment is classed as cell-based. The settings on record: Homo sapiens, LPS 100 ng/mL, 18 hours, read-out: IC50 in PBMC cytokine production assay.

As usually defined, the IC50 is the concentration at which inhibition is half-maximal. The term ED50 denotes the midpoint of the dose-response relation.

Molecules are shown by their SMILES. Where only a bound is given, the exact number is not on record here.

recombinant human p38α, sequence (Q16539 whole entry): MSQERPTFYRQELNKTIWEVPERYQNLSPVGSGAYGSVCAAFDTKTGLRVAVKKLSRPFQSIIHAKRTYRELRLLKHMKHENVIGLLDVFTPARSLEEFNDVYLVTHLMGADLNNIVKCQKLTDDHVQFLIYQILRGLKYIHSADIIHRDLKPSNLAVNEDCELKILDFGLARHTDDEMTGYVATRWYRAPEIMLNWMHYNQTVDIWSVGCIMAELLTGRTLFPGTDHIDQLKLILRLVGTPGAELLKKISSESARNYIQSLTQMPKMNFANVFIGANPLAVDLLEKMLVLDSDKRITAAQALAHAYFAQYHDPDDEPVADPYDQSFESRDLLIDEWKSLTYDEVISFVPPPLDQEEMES

Turning to `Cc1c(F)cc(C(=O)NC2CC2)cc1-c1cc2cnnc(-c3ccccc3Cl)c2n(C)c1=O` [Example 14, 3-(8-(2-chlorophenyl)-1-methyl-2-oxo-1,2-dihydropyrido[2,3-d]pyridazin-3-yl)-N-cyclopropyl-5-fluoro-4-methylbenzamide], the 50% inhibitory concentration (IC50) at recombinant human p38α is 0.0024 µM; in experiment [1] it was at most 1 µM; in experiment [4] it was at most 1 µM. Besides, the median effective dose (ED50) came to 0.02 mg/kg in experiment [2] and 0.03 mg/kg in experiment [3].
